The values below come from patent publication US20260306527A1, “PRMT INHIBITOR COMPOUNDS AND THE USES THEREOF” (Purdue Research Foundation, priority 2023, published 2026).

As usually defined, the inhibition is the relative decrease from the control value, in per cent. The ΔTm is the change in melting temperature against a reference sample. Usually IC50 stands for the point on the concentration scale where inhibition reaches its midpoint.

Assay [1] concerns the target T1, PRMT8 (Homo sapiens, UniProt Q9NR22). The assay is described as follows: radioactive assay (Reaction Biology Corp.), inhibition of PRMT8. Type of assay: biochemical. The protocol:
(§1) Next, the inhibition activity of the library was investigated for five PRMT members from type I PRMTs.
(§2) The PRMT 4, 6 and 8 methylation assays were performed by Reaction Biology corp.

In assay [2] the target is T2, PRMT4 (Homo sapiens, UniProt Q86X55).
T2 construct: PRMT4 (residues 140-480) was cloned into the pFBOH-MHL vector; tag of the pFBOH-MHL vector (poly-His implied by Ni-NTA purification; not described); made in house; host or cells: Sf9 insect cells
Briefly: thermal shift assay PRMT4. Type of assay: binding. As to conditions: 100 μM compound, 20 μM protein. The protocol: The fluorescence-based thermal shift assay was performed using a StepOne plus qPCR instrument (Thermal Fisher). For PRMT1, 10 μM of protein was mixed with 2× sypro orange and DMSO, or 100 μM SAM, or 100 μM YD1113, or 100 μM YD1290 in a buffer consisting of 2.5 mM HEPES (pH=7.0), 25 mM NaCl, 25 μM EDTA, 50 μM TCEP, 0.01% Triton X-100. For PRMT3, 20 μM of protein was mixed with 2× sypro orange and DMSO, or 100 μM SAM, or 100 μM YD1113, or 100 μM YD1290 in a buffer consisting of 20 mM Tris (pH=7.5), 0.01% Triton X-100. For PRMT4, 20 μM of protein was mixed with 2× sypro orange and DMSO, or 100 μM SAM, or 100 μM YD1113, or 100 μM YD1290 in a buffer consisting of 20 mM bicine (pH=8.5), 0.01% Triton X-100. All samples were heated from 25° C. to 75° C. at an increased rate of 0.5° C. per minute. Protein denaturation was monitored by the increased fluorescence signal of Sypro Orange, which captures exposed hydrophobic residues during thermal unfolding. The recorded curves were analyzed by the software StepOne plus and plotted in GraphPad Prism 8 software.
Next, the thermal shift assay (TSA) was conducted as an orthogonal method to examine the effects of YD1290 on the thermal stability of PRMT1, 3, and 4 (Figure S1).

The target of assay [3] is T1, PRMT8. The assay is described as follows: selectivity of YD1113/YD1290 on PRMT panel, PRMT8. As to conditions: 10 μM; PRMT panel. Type of assay: biochemical. In a few lines:
(§3)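 Radioactivity-based PRMT activity assay run by an external provider; YD1113 profiled across the PRMT panel at 10 μM.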

Assay [4] addresses T3, PRMT3 (Homo sapiens, UniProt O60678). Briefly: selectivity of YD1113/YD1290 on PRMT panel, PRMT3. The format is biochemical. The gist of the method:
as §3
Target sequence in this assay (O60678 whole entry, species assumed): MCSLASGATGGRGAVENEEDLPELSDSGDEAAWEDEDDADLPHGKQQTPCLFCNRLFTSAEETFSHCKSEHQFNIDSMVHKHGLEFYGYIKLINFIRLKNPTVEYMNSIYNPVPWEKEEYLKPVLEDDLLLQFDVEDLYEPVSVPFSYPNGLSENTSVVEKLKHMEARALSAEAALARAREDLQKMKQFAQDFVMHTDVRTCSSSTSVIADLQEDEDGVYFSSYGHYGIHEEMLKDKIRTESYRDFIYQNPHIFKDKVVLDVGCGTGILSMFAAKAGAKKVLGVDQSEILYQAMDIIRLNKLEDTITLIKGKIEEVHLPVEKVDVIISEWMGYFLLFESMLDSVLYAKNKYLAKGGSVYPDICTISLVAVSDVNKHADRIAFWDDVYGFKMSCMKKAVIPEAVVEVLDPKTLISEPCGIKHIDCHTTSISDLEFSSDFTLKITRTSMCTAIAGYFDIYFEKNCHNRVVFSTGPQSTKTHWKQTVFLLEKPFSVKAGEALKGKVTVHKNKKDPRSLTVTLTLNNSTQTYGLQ

The target of a further assay is PRMT6 (Homo sapiens, UniProt Q96LA8). The assay is described as follows: selectivity of YD1113/YD1290 on PRMT panel, PRMT6. The format is biochemical. As to conditions: 10 μM; PRMT panel. In a few lines:
as §3

The target in assay [5] is T4, PRMT4 (Homo sapiens, UniProt Q86X55).
T4 sequence (Q86X55 1-608): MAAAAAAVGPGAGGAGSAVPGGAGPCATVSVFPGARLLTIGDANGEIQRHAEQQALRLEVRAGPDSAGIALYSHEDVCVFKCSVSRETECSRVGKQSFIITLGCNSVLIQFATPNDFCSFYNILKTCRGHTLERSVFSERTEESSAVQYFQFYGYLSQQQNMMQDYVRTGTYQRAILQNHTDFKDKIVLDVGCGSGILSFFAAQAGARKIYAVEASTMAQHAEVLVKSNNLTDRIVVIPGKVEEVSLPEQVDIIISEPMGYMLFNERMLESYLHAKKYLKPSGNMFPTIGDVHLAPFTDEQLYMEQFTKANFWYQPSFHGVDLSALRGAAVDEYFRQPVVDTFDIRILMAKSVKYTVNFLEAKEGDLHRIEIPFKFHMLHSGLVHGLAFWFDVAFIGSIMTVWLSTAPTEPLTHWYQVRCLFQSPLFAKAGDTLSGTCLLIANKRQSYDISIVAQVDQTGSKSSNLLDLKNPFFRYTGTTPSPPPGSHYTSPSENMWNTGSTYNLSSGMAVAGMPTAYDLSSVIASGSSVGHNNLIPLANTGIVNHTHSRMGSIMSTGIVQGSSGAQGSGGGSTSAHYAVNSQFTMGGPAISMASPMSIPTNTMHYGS
The assay is described as follows: radioactive assay (Reaction Biology Corp.), inhibition of PRMT4. The format is biochemical. The protocol:
as §1, §2

The subject of assay [6] is PRMT4. The description is as above. The format is biochemical. Here is the method: as §1, §2
Assay [7] concerns the target T3, PRMT3. Briefly: inhibition mechanism study on PRMT3, SAHH-coupled fluorescence. Type of assay: biochemical. More on the design: PRMT3 (residues 211-531) was cloned into the pET28a-MHL expression vector; tag of the pET28a-MHL vector (not described); made in house; host or cells: Escherichia coli BL21(DE3). As to conditions: role: inhibitor. The protocol: The inhibition mechanism of YD1113 on PRMT3 was studied with the fluorescence-based SAHH-coupled assay. Varying concentrations of SAM (from 30 to 240 μM) with 30 μM fixed concentration of H4-21 or varying concentration of H4-21 (from 15 to 240 μM) with 30 μM fixed concentration of SAM were included in reactions at concentration of YD1113 ranging from 1.5 nM to 100 μM.
All the IC50 values were determined in triplicate. Fluorescence was monitored on a BMG CLARIOstar microplate reader with excitation 380 nm and emission 505 nm. Data were processed by using GraphPad Prism software 8.0.
The sensitivity of YD1113 to the steric effects in the above SAR studies (Table 1; FIG. 9) is inexplicable by a relatively open and tolerable peptide substrate binding channel of PRMTs. (Tewary et al. 2019) This contradiction prompted the hypothesis that YD1113 binds to an alternative pocket rather than acts as a bisubstrate analogue to reach the peptide binding pocket. This hypothesis was tested by investigating its inhibition mechanism with a SAHH-coupled fluorescence-based assay. (Richardson et al. 2015) The IC50 values of YD1113 remained constant with the increased ratio of peptide/Km (FIG. 3a-b) while increasing linearly with the ratio of SAM/Km (FIG. 3c-d). […]
Target sequence in this assay (O60678 211-531): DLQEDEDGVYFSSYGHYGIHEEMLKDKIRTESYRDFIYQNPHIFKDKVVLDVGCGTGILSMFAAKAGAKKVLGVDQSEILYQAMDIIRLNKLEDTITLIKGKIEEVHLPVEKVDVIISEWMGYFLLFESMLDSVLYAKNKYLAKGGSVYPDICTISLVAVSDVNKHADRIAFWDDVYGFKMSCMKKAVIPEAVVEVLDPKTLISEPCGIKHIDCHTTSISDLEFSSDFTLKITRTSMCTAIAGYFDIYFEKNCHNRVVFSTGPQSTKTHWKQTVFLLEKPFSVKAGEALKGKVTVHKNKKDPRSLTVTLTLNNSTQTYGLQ

T1 sequence (Q9NR22 whole entry, species assumed): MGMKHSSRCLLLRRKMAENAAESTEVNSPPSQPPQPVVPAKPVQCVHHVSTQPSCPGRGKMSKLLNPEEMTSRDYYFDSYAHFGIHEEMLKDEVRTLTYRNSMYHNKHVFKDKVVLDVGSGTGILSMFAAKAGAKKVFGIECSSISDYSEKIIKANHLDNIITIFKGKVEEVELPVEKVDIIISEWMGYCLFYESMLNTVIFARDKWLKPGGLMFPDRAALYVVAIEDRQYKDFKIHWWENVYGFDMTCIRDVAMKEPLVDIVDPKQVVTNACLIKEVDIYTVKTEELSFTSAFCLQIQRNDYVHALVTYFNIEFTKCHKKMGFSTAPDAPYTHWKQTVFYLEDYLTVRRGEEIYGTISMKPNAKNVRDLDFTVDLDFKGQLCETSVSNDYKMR
Sequence of PRMT6 (Q96LA8 whole entry, species assumed): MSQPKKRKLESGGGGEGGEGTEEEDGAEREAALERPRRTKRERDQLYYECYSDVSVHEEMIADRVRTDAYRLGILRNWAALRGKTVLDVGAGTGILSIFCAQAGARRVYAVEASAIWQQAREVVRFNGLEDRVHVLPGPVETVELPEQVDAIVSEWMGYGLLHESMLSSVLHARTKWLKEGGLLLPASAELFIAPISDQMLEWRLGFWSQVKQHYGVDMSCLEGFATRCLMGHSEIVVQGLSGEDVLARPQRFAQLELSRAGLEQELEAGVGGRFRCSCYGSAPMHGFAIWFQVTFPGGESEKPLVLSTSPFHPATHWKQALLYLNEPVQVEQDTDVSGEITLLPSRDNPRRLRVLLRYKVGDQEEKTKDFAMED

On to `Nc1ncnc2c1ncn2[C@@H]1O[C@H](CSCCNC(=O)NCc2ccccc2)[C@@H](O)[C@H]1O` [Compound 7a, 1-(2-((((2S,3S,4R,5R)-5-(6-amino-9H-purin-9-yl)-3,4-dihydroxytetrahydrofuran-2-yl)methyl)thio)ethyl)-3-benzylurea], for which the inhibition at 10 µM was 12% at PRMT8 [1], less than 35% at PRMT8 [3], less than 35% at PRMT6 and 97% at PRMT4 [5]. Besides, the ΔTm at 100 µM at PRMT4 [2] worked out at 2.6 °C. The values for the IC50 against PRMT3 [4] and in the assay on PRMT4 [6] were 0.321 µM and 0.14 ± 0.013 µM, respectively. Moreover, the “inhibition mechanism vs peptide substrate, PRMT3” value at PRMT3 [7] (H4-21 15 to 240 μM, SAM 30 μM fixed) is on record as “noncompetitive to the peptide substrate”. Besides, at PRMT3 [7] (SAM 30 to 240 μM, H4-21 30 μM fixed), the “inhibition mechanism vs SAM, PRMT3” value is given as “competitive to SAM”.
